Type in all cases: cell-based
Test [1] deals with Wnt activity (Sp5-Luc reporter, SW480 colon carcinoma cells). Put plainly: Screening assay for Wnt activity: Sp5-Luc reporter gene assay in SW480 cells. To be noted: Homo sapiens; for EC50: SW480 Sp5-Luc reporter, overnight incubation; for inhibition at 10 µM: SW480, read-out: percent inhibition at 10 μM. The essentials:
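SW480 colon carcinoma cells stably carrying Sp5 promoter (eight TCF/LEF sites)-driven firefly luciferase, plated at 4,000 cells/well in 1% FBS medium and incubated overnight at 37° C. Luminescence normalised to DMSO-only cells; EC50 from four-parameter variable-slope nonlinear regression.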
On the technique in general: A reporter such as luciferase makes a cellular process visible.

For test [2], the system named is primary human mesenchymal stem cells (hMSCs). Put plainly: Induction of chondrogenesis in hMSCs (nodule imaging, Rhodamine B / Nile Red). As to conditions: 6 days; for Emax: relative to TGF-β3 (10 ng/mL) positive control, read-out: Max. Activity as % TGF-β3 activity; for EC50: concentration required to induce 50% levels of chondrogenesis vs TGF-β3, read-out: Conc (nM) of 50% TGF-β3 activity. The text has this:
Representative compounds were screened using primary human mesenchymal stem cells (hMSCs) to determine their ability to induce chondrogenesis (process by which cartilage is developed).
Primary human mesenchymal stem cells (hMSCs) were purchased from Lonza (Walkersville, Md.) and expanded in Mesenchymal Stem Cell Growth Media (Lonza). Cells between passage 3 and 6 were used for the experiments.
Area of nodules in each well was normalized to the average of 3 DMSO treated wells on the same plate using Excel (Microsoft Inc.). The normalized averages (fold change over DMSO) of 2 or 3 replicate wells for each compound concentration were calculated. Due to solubility limitations of some of the compounds, curve fitting was incomplete leading to inaccurate EC50 determinations.
Using TGF-β3 as a positive control, the concentration of representative compounds required to induce 50% levels of chondrogenesis is reported. In addition, the maximum activity of each compound and the respective dose that each compound reached maximum chondrogenesis activity is reported.

Test [3] relates to Primary human fibroblasts derived from IPF patients (LL29 cells). As to the kind of experiment: Inhibition of the fibrotic process: αSMA staining in TGF-β1-treated LL29 fibroblasts. To be noted: Fibroblast; for EC50: 96 h, LL29 cells, TGF-β1 20 ng/mL, 4 days, % αSMA-positive cells; for inhibition at 10 µM: read-out: percent inhibition at 10 μM. The essentials:
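LL29 IPF-patient lung fibroblasts plated in F12 with 1% FBS, treated with TGF-β1 plus compound; TGF-β1/DMSO wells served as controls. After 4 days incubation, SYTOX green (1 μM final) added for 30 min at room temperature; αSMA staining used as fibrosis read-out.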

Test [4] has as its system IL-6 (THP-1 cells). Put plainly: IL-6 inhibition in THP-1 monocytes (HTRF). As to conditions: Homo sapiens; for EC50: IL-6 inhibition, THP-1 cells, HTRF, 10-point dose-response starting from 10 μM; for inhibition at 10 µM: THP-1, read-out: percentage in parentheses printed under EC50 >10. The essentials: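 THP-1 cells serum-reduced (1% FBS, 24 h), plated 5000/well, stimulated with 500 ng/mL […] after 2 h and incubated a further 22 h at 37 °C. Secreted IL-6 quantified by HTRF (665/620 nm ratio), normalized to DMSO; EC50 from four-parameter fit, duplicates.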
Background: In TR-FRET formats the signal depends on donor and acceptor labels being close together.

Test [5] has as its system SW480 colon cancer cells. As to the kind of experiment: Cell viability assay (CellTiter-Blue) in SW480 colon cancer cells. As to conditions: Homo sapiens; for EC50: 96 h, SW480 cell viability, four days incubation; for inhibition at 10 µM: SW480, read-out: percent inhibition at 10 μM. In a few lines: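 Fluorescence from resazurin reduced to resorufin by metabolically active cells was the read-out, taken after ~3 h with CellTiter-Blue.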

Take `Fc1cccc(-c2cncc3[nH]c(-c4n[nH]c5ccc(-c6ccccn6)cc45)cc23)c1` [Compound 28, 3-(4-(3-Fluorophenyl)-1H-pyrrolo[2,3-c]pyridin-2-yl)-5-(pyridin-2-yl)-1H-indazole]: the EC50 is 670 nM in test [1], 460 nM in test [3], 2420 nM in test [4] and 355 nM in test [5]. In test [2], the Emax is 26%.
`Nc1cncc(-c2ccc3[nH]nc(-c4cc5c(-c6ccccc6F)cncc5[nH]4)c3c2)c1` [Compound 59, 5-(3-(4-(2-Fluorophenyl)-1H-pyrrolo[2,3-c]pyridin-2-yl)-1H-indazol-5-yl)pyridin-3-amine]: the EC50 in test [1] was 875 nM; in test [2], 10 nM; in test [3], 2900 nM; in test [4], 4500 nM; in test [5] it was over 10000 nM. Moreover, the Emax in test [2] is 58%. For the same molecule, the inhibition at 10 µM in test [5] stood at 27.9%.
Consider `CCNCc1cncc(-c2ccc3[nH]nc(-c4cc5c(-c6ccccc6F)cncc5[nH]4)c3c2)c1` [Compound 62, N-((5-(3-(4-(2-Fluorophenyl)-1H-pyrrolo[2,3-c]pyridin-2-yl)-1H-indazol-5-yl)pyridin-3-yl)methyl)ethanamine], for which the inhibition at 10 µM in test [1] came to 51%. Besides, the EC50 in test [1] is over 10000 nM; in test [2] it was 100 nM; in test [3] it was 9730 nM; in test [4], 7510 nM; in test [5], 4720 nM. In test [2], the Emax worked out at 86%.
With `c1cncc(-c2ccc3[nH]nc(-c4cc5c(-c6cccnc6)cncc5[nH]4)c3c2)c1` [Compound 88, 5-(Pyridin-3-yl)-3-(4-(pyridin-3-yl)-1H-pyrrolo[2,3-c]pyridin-2-yl)-1H-indazole], the EC50 in test [1] is 310 nM; in test [2], 100 nM; in test [3] it was over 10000 nM; in test [4], 105 nM; in test [5], 495 nM. For the same molecule, the Emax in test [2] was determined as 58%. The inhibition at 10 µM in test [3] stood at 0%.
With `CC(C)C(=O)Nc1cncc(-c2ccc3[nH]nc(-c4cc5c(-c6cccnc6)cncc5[nH]4)c3c2)c1` [Compound 93, N-(5-(3-(4-(Pyridin-3-yl)-1H-pyrrolo[2,3-c]pyridin-2-yl)-1H-indazol-5-yl)pyridin-3-yl)isobutyramide], the EC50 in test [1] came to 260 nM; in test [3], 175 nM; in test [4] it was 247 nM; in test [5], 584 nM. Moreover, the Emax in test [2] was 34%.
As to `O=C(Nc1cncc(-c2ccc3[nH]nc(-c4cc5c(-c6cccnc6)cncc5[nH]4)c3c2)c1)c1ccccc1` [Compound 95], the inhibition at 10 µM was determined as 32.4% in test [1], 34.2% in test [3] and 22.7% in test [5]. The EC50 is over 10000 nM in test [1]; 10 nM in test [2]; over 10000 nM in test [3]; 1710 nM in test [4]; over 10000 nM in test [5]. In addition, in test [2], the Emax came to 69%.
On to `CC(C)Nc1cncc(-c2ccc3[nH]nc(-c4cc5c(-c6cccnc6)cncc5[nH]4)c3c2)c1` [Compound 96, N-Isopropyl-5-(3-(4-(pyridin-3-yl)-1H-pyrrolo[2,3-c]pyridin-2-yl)-1H-indazol-5-yl)pyridin-3-amine], for which the EC50 in test [1] is 670 nM; in test [3], 315 nM; in test [4], 128 nM; in test [5], 836 nM. Also, the Emax in test [2] was found to be 42%.
As for `c1cncc(-c2cncc3[nH]c(-c4n[nH]c5ccc(-c6cncc(CN7CCCCC7)c6)cc45)cc23)c1` [Compound 99, 5-(5-(Piperidin-1-ylmethyl)pyridin-3-yl)-3-(4-(pyridin-3-yl)-1H-pyrrolo[2,3-c]pyridin-2-yl)-1H-indazole], the inhibition at 10 µM in test [1] stood at 31.2%. Besides, the EC50 in test [1] is over 10000 nM; in test [3], 4040 nM; in test [4], 5700 nM; in test [5], 3370 nM. The Emax in test [2] came to 40%.
In the case of `O=C(Nc1cncc(-c2ccc3[nH]nc(-c4cc5c(-c6cccnc6)cncc5[nH]4)c3c2)c1)C1CCCC1` [Compound 106, N-(5-(3-(4-(Pyridin-3-yl)-1H-pyrrolo[2,3-c]pyridin-2-yl)-1H-indazol-5-yl)pyridin-3-yl)cyclopentanecarboxamide], the EC50 stood at 1400 nM in test [1], 2320 nM in test [3], 209 nM in test [4] and 2030 nM in test [5]. Besides, the Emax in test [2] was 45%.
Consider `FC1(F)CCN(Cc2cncc(-c3ccc4[nH]nc(-c5cc6c(-c7cccnc7)cncc6[nH]5)c4c3)c2)C1` [Compound 110, 5-(5-((3,3-Difluoropyrrolidin-1-yl)methyl)pyridin-3-yl)-3-(4-(pyridin-3-yl)-1H-pyrrolo[2,3-c]pyridin-2-yl)-1H-indazole], for which the EC50 in test [1] was 526 nM; in test [2], 900 nM; in test [3], 337 nM; in test [4], 353 nM; in test [5] it was 1280 nM. In test [2], the Emax turned out to be 256%.
Take `c1cncc(-c2cncc3[nH]c(-c4n[nH]c5ccc(-c6cncnc6)cc45)cc23)c1` [Compound 111, 3-(4-(pyridin-3-yl)-1H-pyrrolo[2,3-c]pyridin-2-yl)-5-(pyrimidin-5-yl)-1H-indazole]: the inhibition at 10 µM was found to be 14.5% in test [1], 46.5% in test [3], 42.4% in test [4] and 7.5% in test [5]. The EC50 in test [1] is over 10000 nM; in test [2], 2700 nM; in test [3] it was over 10000 nM; in test [4], over 10000 nM; in test [5] it was over 10000 nM. Moreover, the Emax in test [2] turned out to be 58%.
For `CC(C)CC(=O)Nc1cncc(-c2ccc3[nH]nc(-c4cc5c(-c6ccncc6)cncc5[nH]4)c3c2)c1` [Compound 114], the EC50 in test [1] was 875 nM; in test [2], 30 nM; in test [3] it was over 10000 nM; in test [4] it was over 10000 nM; in test [5], over 10000 nM. Besides, the Emax in test [2] was 70%. In addition, the inhibition at 10 µM worked out at 47% in test [3], 15.9% in test [4] and 24.8% in test [5].
For `CN(C)Cc1cncc(-c2ccc3[nH]nc(-c4cc5c(-c6ccncc6)cncc5[nH]4)c3c2)c1` [Compound 125], the EC50 in test [1] came out at 1060 nM; in test [3], 2440 nM; in test [4], 1160 nM; in test [5], 2170 nM. Moreover, in test [2], the Emax is 18%.
Take `c1cc(-c2cncc3[nH]c(-c4n[nH]c5ccc(-c6cncc(CN7CCCC7)c6)cc45)cc23)ccn1` [Compound 126, 3-(4-(Pyridin-4-yl)-1H-pyrrolo[2,3-c]pyridin-2-yl)-5-(5-(pyrrolidin-1-ylmethyl)pyridin-3-yl)-1H-indazole]: the EC50 in test [1] was 3390 nM; in test [3], 1490 nM; in test [4], 2160 nM; in test [5], 2310 nM. Also, the Emax in test [2] was found to be 48%.
For the molecule `CCCC(=O)Nc1cncc(-c2ccc3[nH]nc(-c4cc5c(-c6ccncc6)cncc5[nH]4)c3c2)c1` [Compound 129, N-(5-(3-(4-(Pyridin-4-yl)-1H-pyrrolo[2,3-c]pyridin-2-yl)-1H-indazol-5-yl)pyridin-3-yl)butyramide], the inhibition at 10 µM in test [1] came out at 25.5%; in test [5], 15.5%. The EC50 in test [1] was over 10000 nM; in test [2] it was 100 nM; in test [3], 6200 nM; in test [4], 1020 nM; in test [5], over 10000 nM. Further, the Emax in test [2] is 124%.
Turning to `O=C(Nc1cncc(-c2ccc3[nH]nc(-c4cc5c(-c6ccncc6)cncc5[nH]4)c3c2)c1)C1CC1` [Compound 132, N-(5-(3-(4-(Pyridin-4-yl)-1H-pyrrolo[2,3-c]pyridin-2-yl)-1H-indazol-5-yl)pyridin-3-yl)cyclopropanecarboxamide], the EC50 is 395 nM in test [1], over 10000 nM in test [3], 765 nM in test [4] and over 10000 nM in test [5]. In addition, the Emax in test [2] was found to be 37%. Further, the values for the inhibition at 10 µM in test [3] and in test [5] were 35.6% and 20.6%, respectively.
